The values that follow are results of earlier work, collected in patent publication US20020058290A1, “Cell lines and cell-based assays for identification of androgen receptor modulators” (priority 2000, published 2002).

In the data set the test system is MAP kinases Erk-1 and Erk-2. Conditions: AR-transfected PC3 cells; AR dependent, similar to DHT.

Structures are written as SMILES.

For `CC(C)(O)C(=O)Nc1ccc([N+](=O)[O-])c(C(F)(F)F)c1` [Hydroxyflutamide], the “activation of MAP kinases Erk-1 and Erk-2” value was “activate MAP kinases Erk-1 and Erk-2 in an AR dependent fashion”.

`CC(O)(CS(=O)(=O)c1ccc(F)cc1)C(=O)Nc1ccc(C#N)c(C(F)(F)F)c1` (centres unmarked) [Casodex]: the “activation of MAP kinases Erk-1 and Erk-2” value is “activate MAP kinases Erk-1 and Erk-2 in an AR dependent fashion”.
